Laboratory results from patent US7935719B2, “N-substituted-azacyclylamines as histamine-3 antagonists” (Wyeth LLC, priority 2006, dated 2011).
pKi: −log10 of the molar value. Structures can show the parent of a compound that is named as a salt.

Tests used:
Histamine Receptor H3 [1] = target: T1, Histamine Receptor H3 (Homo sapiens, UniProt Q9Y5N1); experiment: Cyclic AMP assay for histamine receptor H3 antagonism activity; assay type: cell-based; parameters: expressed in transfected cells; conditions: stable H3 cells, histamine plus 10 μM forskolin, 30 min at 30° C., HitHunter cAMP kit
T1 sequence (Q9Y5N1 whole entry): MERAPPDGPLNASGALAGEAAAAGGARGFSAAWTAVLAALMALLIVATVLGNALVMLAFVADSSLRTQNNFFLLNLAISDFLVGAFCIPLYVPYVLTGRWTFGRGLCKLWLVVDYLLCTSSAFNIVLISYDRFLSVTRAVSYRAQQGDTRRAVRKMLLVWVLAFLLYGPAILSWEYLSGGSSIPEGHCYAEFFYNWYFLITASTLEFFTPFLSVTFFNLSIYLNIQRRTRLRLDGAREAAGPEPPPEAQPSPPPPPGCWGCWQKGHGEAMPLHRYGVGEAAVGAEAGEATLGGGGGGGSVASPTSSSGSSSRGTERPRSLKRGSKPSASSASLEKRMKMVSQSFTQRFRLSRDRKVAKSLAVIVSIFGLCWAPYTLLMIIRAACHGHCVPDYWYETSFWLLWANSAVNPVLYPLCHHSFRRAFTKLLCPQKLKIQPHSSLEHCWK
Method: Cyclic Amp Assay for Histamine Receptor H3 Antagonism Activity.
Stable H3 cells are maintained in tissue culture flask in DMEM with high glucose, 10% FBS, 1× pen/strep, 500 ug/ml GY18, until experiment. Culture media is removed and cells are washed twice with PBS w/Ca+2 and Mg+2 plus 500 μM IBMX. Cells are then detached by tapping on the side of the flask and resuspend in the same buffer. Two thousand cells/well are incubated with 1 μM histamine plus 10 μM forskolin plus various concentrations of compounds in a total volume of 30 μL in 96 well plates for 30 min at 30° C. Final test compound concentrations range from 10^-4 M to 10-9.5 M at full log dilutions. Cyclic AMP levels are measured using HitHunter cAMP kit from Discoverx, cat#900041 according to manufacturer's instruction. Chemiluminescence signals are detected using Top Count (Packard). Cyclic AMP levels in control cells receiving 10 μM forskolin plus 100 nM histamine are considered 0%, and in cells receiving 10 uM forskolin plus 100 nM histamine plus 1 μM clobenpropit are considered 100%. Data are expressed as % control and analyzed using Prizm software. The Kb values are calculated using the following equation, KB=EC50 or IC50/[1+(ligand/Kd)].

Histamine Receptor H3 [2] = target: T1, Histamine Receptor H3; experiment: Methyl histamine binding in human histamine H3 receptor cell line; parameters: expressed in transfected cells; host or cells: HEK293T; conditions: membranes of stably transfected HEK293T cells, radioligand 1 nM, Ki from IC50 by Cheng-Prusoff
Method: Evaluation of Methyl Histamine Binding in Human Histamine H3 Receptor Cell Line
The affinity of test compounds for the histamine 3 (H3) receptor is evaluated in the following manner. […] Cells are scraped from the plate, transferred to centrifuge tubes, washed one time in PBS by centrifugation in a Sorvall RT7 Plus centrifuge (2000 rpm 10 minutes, 4° C.). The resulting pellets are stored at −80° C. until ready for use. Cells are re-suspended in buffer (50 mM Tris pH=7.5) and placed in a Dounce homogenizer, douncing ten times to homogenize cells. The homogenate is spun down by centrifugation (Sorvall RT7 Plus, 1800 rpm 10 minutes, 4° C.). The supernatant is placed in a Corex tube and spun down by centrifugation (Sorvall RC 5c Plus, 17,000 rpm 20 minutes, 4° C.). The pellet is resuspended in buffer (50 mM Tris, pH 7.5). Protein concentration (ug/ul) is determined using the Micro-BCA Protein Determination. The binding assay is set up in a 96 well microtiter plate in a total volume of 250 uL. Non-specific binding is determined in the presence of 10 uM clobenpropit. The final radioligand concentration is 1 nM. The test compound is serially diluted using the Beckman Biomek2000 to a final approximate range of 100 uM to 100 pM. Membranes are suspended in buffer, homogenized in 2 bursts of ten seconds using a Vitris mechanical homogenizer set at power setting 5. Ten μg of membranes are added to each well. Following a one hour incubation at 30° C., the reaction is terminated by the addition of ice cold buffer and rapid filtration with a Packard Filtermate Harvester through a GF/B filter pre-soaked with 1% PEI for one hour. The plate is dried for one hour at 37° C. and 60 μL Microscint Scintillant is added to each well. The CPM per well is measured on a Packard Top Count NXT. Ki values are determined in nM. […] CPM values are expressed as % specific binding and plotted vs compound concentration. A curve is fitted using a four-parameter logistic fit and the IC50 value is determined. The Ki is calculated from this using the Cheng-Prusoff equation: […]=IC50/1+(L/Kd) where L=concentration of free radioligand used in the assay, and Kd is the dissociation constant of the radioligand for the receptor. L is determined for each experiment by counting an aliquot of the diluted radioligand (corresponding to that added to each well) and the Kd has previously been determined under identical conditions for this cell line/radioligand.

Row | SMILES | Kb (Histamine Receptor H3 [1]) [nM] | pKi (Histamine Receptor H3 [2])
1 | C[C@H]1CCCN1[C@H]1CCN(C(=O)c2ccc(-n3cnc4ccccc43)cc2)C1 [Example 7, (2S,3′S)-1′-[4-(1H-benzimidazol-1-yl)benzoyl]-2-methyl-1,3′-bipyrrolidine] | < 10 | > 8.00
2 | O=C(c1ccc(-n2ccc3cc(F)ccc32)cc1)N1CC[C@H](N2CCCC2)C1 [Example 37, (3′S)-1′-[4-(5-fluoro-1H-indol-1-yl)benzoyl]-1,3′-bipyrrolidine] | < 10 | > 8.00
3 | O=C(c1ccc(-n2ccc3cccc(F)c32)cc1)N1CC[C@H](N2CCCC2)C1 [Example 39, (3′S)-1′-[4-(7-fluoro-1H-indol-1-yl)benzoyl]-1,3′-bipyrrolidine] | < 10 | > 8.00
4 | O=C(c1ccc(-n2cnc3ccccc32)cc1)N1CC[C@H](N2CCCC2)C1 [Example 5, (3′S)-1′-[4-(1H-benzimidazol-1-yl)benzoyl]-1,3′-bipyrrolidine hydrochloride] | 25.1 to 50 | > 8.00

The remaining lines, values ahead:

Row | Kb (Histamine Receptor H3 [1]) [nM] | pKi (Histamine Receptor H3 [2]) | SMILES
5 | < 10 | > 8.00 | Cc1nc2ccccc2n1-c1ccc(C(=O)N2CC[C@H](N3CCCCC3)C2)cc1 [Example 28, 2-methyl-1-(4-{[(3S)-3-piperidin-1-ylpyrrolidin-1-yl]carbonyl}phenyl)-1H-benzimidazole]
6 | < 10 | > 8.00 | O=C(c1ccc(-n2ccc3c(F)cccc32)cc1)N1CC[C@H](N2CCCC2)C1 [Example 31, (3′S)-1′-[4-(4-fluoro-1H-indol-1-yl)benzoyl]-1,3′-bipyrrolidine]
7 | < 10 | > 8.00 | Cc1nc2ccccc2n1-c1ccc(C(=O)N2CC[C@H](N3CCCC(C)C3)C2)cc1 (stereo partly drawn) [Example 24, 2-methyl-1-(4-{[(3S)-3-(3-methylpiperidin-1-yl)pyrrolidin-1-yl]carbonyl}phenyl)-1H-benzimidazole]
8 | < 10 | > 8.00 | COc1ccc2c(ccn2-c2ccc(C(=O)N3CC[C@H](N4CCCC4)C3)cc2)c1 [Example 33, (3′S)-1′-[4-(5-methoxy-1H-indol-1-yl)benzoyl]-1,3′-bipyrrolidine]
9 | < 10 | > 8.00 | Cc1nc2ccccc2n1-c1ccc(C(=O)N2CC[C@H](N3CCC[C@@H]3C)C2)cc1 [Example 22, (2S,3′S)-2-methyl-1′-[4-(2-methyl-1H-benzimidazol-1-yl)benzoyl]-1,3′-bipyrrolidine]
10 | < 10 | > 8.00 | Cc1nc2ccccc2n1-c1ccc(C(=O)N2CC[C@H](N3CCC[C@H]3C)C2)cc1 [Example 21, (2R,3′S)-2-methyl-1′-[4-(2-methyl-1H-benzimidazol-1-yl)benzoyl]-1,3′-bipyrrolidine]
